Here are results for one sequence from paper PMC9376946, “Peptide-RNA Coacervates as a Cradle for the Evolution of Folded Domains” (Journal of the American Chemical Society, 2022).

One series has as its system PA dimer (PA2). Nature of the series: DEER of singly labeled peptides in solution (dimerization). In kind it is binding.
Series [1] concerns polyU. Nature of the series: Coacervate (droplet) formation with polyU, optical microscopy. In kind it is physicochemical. The note with it: for coacervate formation with polyU: 150 μM, 50 mM MES pH 5.6. On the procedure: Optical microscopy images of phase-separated samples were taken at the de Picciotto Cancer Cell Observatory Life Sciences Core Facilities (Weizmann Institute of Science) using a 100× objective (oil immersion) on a Leica DMI8 microscope with differential interface contrast. We used 1–2 μL of the sample to make a small drop in an imaging chamber produced by attaching a coverslip to a clean glass slide using a thin strip of double-sided tape (AJ Sign World). Images were processed using the software package Fiji (NIH).
Lyophilized, spin-labeled peptides were dissolved in Milli-Q water and centrifuged at 4000 rpm for 10 min to remove insoluble aggregates. The soluble fractions were used to prepare stock solutions of 250–500 μM peptide. Labeled peptide concentrations were determined by comparing the area under the curve of the EPR signal against that of standard solutions of 10–285 μM TEMPO. For the EPR measurements in D2O, 200 μL of the stock solution was lyophilized and re-dissolved in D2O. The concentration of the unlabeled peptide stock solutions was determined using the bicinchoninic acid assay (Thermo Fisher Scientific) and ranged from 0.8 to 1.2 mM peptide. A stock solution of 500 mM MES, pH 5.6 was used to adjust all samples to a final concentration of 50 mM MES, pH 5.6. Aliquots of 10 mg/mL polyuridylic acid (polyU; Sigma Aldrich) were prepared in Milli-Q water and diluted as necessary. For CW-EPR measurements, a quartz capillary of 0.6 mm i.d. and 0.84 mm o.d. was filled with 7–8 μL of the sample and sealed with Critoseal (Fisherbrand, Fisher Scientific) at one end. A single capillary was placed in an X-band EPR tube of 2 mm i.d. and 2.4 mm o.d. for measurements, except for spin concentration below 50 μM, where two capillaries were used.
Each sample was freshly prepared and the time to collect […] CW-EPR data was 30–40 min.

Series [2] deals with polyU. The experiment in a line: DEER of peptides in the presence of polyU. In kind it is binding. Particulars: for local concentration of detected spins: from DEER background decay, calibration curve. Here is the method: For pulse EPR measurements, 5–6 μL of peptide in D2O with 20% glycerol-d8 was introduced into a quartz capillary of 0.9 mm i.d. and 1.1 mm o.d. and sealed with Critoseal at one end. The samples with polyU (and thus, the potential for coacervates) were flash-frozen in liquid nitrogen after incubating at room temperature for 15–20 min. Samples without polyU were directly inserted into the spectrometer at 25 K.
Pulse EPR measurements were carried out at the W band (94.9 GHz) on a home-built spectrometer at 25 K.[22]−[24] Echo intensities were measured with a Hahn echo sequence (π/2νobs – τ – πνobs – τ – echo) using π/2 and π pulses of 20–25 ns and 40–50 ns, respectively, and τ = 500 ns. Echo decays were measured under the same conditions with an initial τ value of 500 ns. DEER measurements were recorded using the four-pulse DEER sequence (π/2νobs – τ1 – πνobs – (τ1 + t) – πνpump – (τ2-t) – πνobs – τ2 – echo)[25],[26] with a chirp pump pulse[23] using eight-step phase cycling and monitoring the echo intensity as a function of increasing t. The maximum intensity of the nitroxide spectrum was set to 94.9 GHz, the observer pulses were set to 94.85 GHz, and the π/2 and π pulse durations were 35–40 and 70–80 ns. The chirp pump pulse frequency was 94.88–94.98 GHz with a duration of 128 ns. The repetition time was 10 ms. The samples without polyU and a concentration above 50 μM were averaged for 1–5 h. All the samples with a concentration ≤50 μM and all the samples in the presence of polyU were averaged for 6–14 h. The DEER data were analyzed using the DeerAnalysis 2018[27] program with Tikhonov regularization[28] and also verified with DEERNet.[29] For DeerAnalysis, the background was fitted with a homogenous three-dimensional distribution. The calculated distance distributions were obtained from mtsslSuite[30] using maleimide TEMPO (M-TEMPO) as the ligand, and 200 rotamer conformations were generated using clash treatment set to “loose”.
We carried out DEER measurements on the series of samples with 150 μM PA-12 and varying amounts of polyU (Figure 5A). DEER traces were analyzed in terms of several parameters: (i) the modulation depth, Δ, which gives information about the amount of dimers present; (ii) the slope of the background decay, which gives information on the average local concentration of the observed spins;[36],[40] and (iii) the SNR, which indicates how many spins were observed. […] The decrease in the background decay slope and SNR are consistent with the observed reduction in echo intensity (Figure 4A). We therefore conclude that the observed DEER modulation arose from the unbound PA-12 dimers, whereas the polyU-bound PA-12 could not be detected, as discussed in the description of the echo decays. As the polyU concentration increases, the PA-12 concentration in the dispersed phase decreases and therefore the dimer population decreases as well (eq 1), ultimately resulting in the disappearance of the modulation at about 0.5 mg/mL polyU.
We summarized our experimental observations in Figure 5B, where we plot the decrease degree (in %) in the background decay, the echo intensity, and the modulation depth as a function of polyU concentration. For all parameters, the graphs show a similar linear behavior in the high PA/polyU regime below 0.5 mg/mL polyU. […] At 0.5 mg/mL polyU, an inflection point is detected: Above 0.5 mg/mL polyU, population II reaches a plateau and we have a small gain in echo intensity and background decay, but a large gain in modulation depth. From this series of experiments, we conclude that PA bound to polyU has restricted motion and that dimers of PA exist also when bound to polyU within the coacervate. We determined the local concentration of the spins contributing to the DEER traces in the PA/polyU mixtures from a calibration curve generated from the background decay slopes of the DEER data of PA-12 in the absence of polyU (Figure S10D), and the results are given in Table 2. […]

“And” between values parts separate entries of the source, which are not always exact repeats. Equal values may be shown once.

Experimental for PA dimer (PA2): Lyophilized, spin-labeled peptides were dissolved in Milli-Q water and centrifuged at 4000 rpm for 10 min to remove insoluble aggregates. The soluble fractions were used to prepare stock solutions of 250–500 μM peptide. Labeled peptide concentrations were determined by comparing the area under the curve of the EPR signal against that of standard solutions of 10–285 μM TEMPO. For the EPR measurements in D2O, 200 μL of the stock solution was lyophilized and re-dissolved in D2O. The concentration of the unlabeled peptide stock solutions was determined using the bicinchoninic acid assay (Thermo Fisher Scientific) and ranged from 0.8 to 1.2 mM peptide. […]
Pulse EPR measurements were carried out at the W band (94.9 GHz) on a home-built spectrometer at 25 K.[22]−[24] Echo intensities were measured with a Hahn echo sequence (π/2νobs – τ – πνobs – τ – echo) using π/2 and π pulses of 20–25 ns and 40–50 ns, respectively, and τ = 500 ns. Echo decays were measured under the same conditions with an initial τ value of 500 ns. DEER measurements were recorded using the four-pulse DEER sequence (π/2νobs – τ1 – πνobs – (τ1 + t) – πνpump – (τ2-t) – πνobs – τ2 – echo)[25],[26] with a chirp pump pulse[23] using eight-step phase cycling and monitoring the echo intensity as a function of increasing t. […]

Regarding “RIRRASVEELTCVPGIGPRLARRILERLA [PA-12, Precursor-Arg peptide in which position 12 has been modified with a cysteine and attached to an M-TEMPO spin label]”, the “DEER modulation depth (Δ)” value in the series with PA dimer (PA2) (30 μM, without polyU) came to 2%. Besides, the “inter-monomer distances upon spin dilution” value with PA dimer (PA2) (about 10% spin-labeled peptide, 200 μM total PA) is “inter-monomer distances practically disappear”. In addition, in the series on polyU [1] (50 μM PA-12 and above, 1 mg/mL polyU), the “droplet formation with polyU” value was “a significant number of droplets”. Moreover, the “coacervate formation with polyU” value with polyU [1] (0.35 or 0.5 mg/mL polyU) is “only a few tiny droplets were observed”; with polyU [1] (1 or 2 mg/mL polyU), “readily form coacervates”. In addition, in the series on polyU [2] (30 μM PA-12, 1 mg/mL polyU, corrected for 40% component I), the “maximum modulation depth corrected for free PA” value was determined as 9.5%. Moreover, the “DEER modulation depth (Δ) with polyU” value in the series with polyU [2] (30 μM PA-12, 1 mg/mL polyU, local concentration 25 μM) amounted to 5.7%; in the series on polyU [2] (150 μM PA-12, 1 mg/mL polyU), 2%. The “DEER modulation depth with polyU (in words)” value in the series on polyU [2] (100 μM PA-12, 2 mg/mL polyU) is reported as “higher modulation depth than the sample with 1 mg/mL polyU”. In addition, the “DEER modulation with polyU (in words)” value was “modulation could no longer be detected” with polyU [2] (150 μM PA-12, 0.5 mg/mL polyU) and “modulation reappeared again” in the series on polyU [2] (150 μM PA-12, 1 mg/mL polyU). The “local concentration of detected spins” value in the series with polyU [2] (PA-12 30 μM / polyU 1 mg/mL) was 25 µM and 25 ± 2 µM; in the series on polyU [2] (PA-12 100 μM / polyU 1 mg/mL) it was 48 ± 4.5 µM; in the series with polyU [2] (PA-12 100 μM / polyU 2 mg/mL), 53 ± 5 µM; in the series with polyU [2] (PA-12 150 μM / polyU 0.1 mg/mL), 91 ± 8 µM; in the series with polyU [2] (PA-12 150 μM / polyU 0.2 mg/mL), 75 ± 7 µM; with polyU [2] (PA-12 150 μM / polyU 0.35 mg/mL), 45 ± 4 µM. Further, the “local concentration of detected spins” value is 2.3 µM and 2.3 ± 2 µM in the series on polyU [2] (PA-12 150 μM / polyU 0.5 mg/mL); 23 µM and 23 ± 2 µM in the series on polyU [2] (PA-12 150 μM / polyU 1 mg/mL).
